Values after ≈ are worked out from the molar mass of the structure shown.
System: M17-SYNwt cells
Assay: α-synuclein cytotoxicity assay (LDH leakage from paraquat-treated α-synuclein over-expressing neuroblastoma cells)
Format: cell-based, human
Conditions: paraquat 32 mM, 40 hours, LDH release; for %I: percent inhibition of synuclein cytotoxicity at most effective concentration of test compound, relative to untreated paraquat cells; for EC50: Homo sapiens, Neuroblastoma cell, 10 point curves in duplicate
Method: Subsequently, LDH activity was determined using Promega Cytotox 96 NonRadioactive cytotoxicity assay, (Cat. G1780) according the supplier's instructions.
This corresponds to the following equation: (LDHreleaseoftreatedparaquatcellsatnon-effectiveconcentrationoftestcmpd)−(LDHreleaseoftreatedparaquatcellsatmosteffectiveconcentrationoftestcmpd)/(LDHreleaseofuntreatedparaquatcells)−(LDHreleasecontrolcells)*100% [formula]
1,2,4-thiadazole compounds made according to the methods described herein were screened for activity using the α-synuclein cytotoxicity assay as described above. Dose responses were carried out on all compounds found to be active (10 point curves in duplicate).

SMILES	%I [%]	EC50 [µg/mL]
O=C(Nc1ccc(F)c(F)c1)N1CCN(c2nc(Cc3ccc(F)cc3)ns2)CC1 [Compound 28, N-(3,4-difluorophenyl)-4-[3-(4-fluorobenzyl)-1,2,4-thiadiazol-5-yl]piperazine-1-carboxamide]	64	
COc1cc(NC(=O)N2CCN(c3nc(Cc4ccc(F)cc4)ns3)CC2C)cc(OC)c1 (centres unmarked) [Compound 29, N-(3,5-dimethoxyphenyl)-4-[3-(4-fluorobenzyl)-1,2,4-thiadiazol-5-yl]-2-methylpiperazine-1-carboxamide]	51	
CC(C)(C)c1ccc(S(=O)(=O)N2CCN(c3nc(Cc4ccc(F)cc4)ns3)CC2)cc1 [Compound 30, 1-[4-tert-butylphenylsulfonyl]-4-[3-(4-fluorobenzyl)-1,2,4-thiadiazol-5-yl]piperazine]	51	
COc1ccc(S(=O)(=O)N2CCN(c3nc(Cc4ccc(Cl)cc4)ns3)CC2)cc1 [Compound 31, 1-[4-methoxyphenylsulfonyl]-4-[3-(4-chlorobenzyl)-1,2,4-thiadiazol-5-yl]piperazine]	59	0.000169 (≈ 0.000363 µM)
COc1ccc(S(=O)(=O)N2CCN(c3nc(Cc4ccc(F)cc4)ns3)CC2)cc1 [Compound 32, 1-[4-methoxyphenylsulfonyl]-4-[3-(4-fluorobenzyl)-1,2,4-thiadiazol-5-yl]piperazine]	78	0.0024 (≈ 0.00535 µM)
O=S(=O)(c1ccc(F)cc1)N1CCN(c2nc(Cc3ccc(Cl)cc3)ns2)CC1 [Compound 33, 1-[4-fluorophenylsulfonyl]-4-[3-(4-chlorobenzyl)-1,2,4-thiadiazol-5-yl]piperazine]	53	0.00282 (≈ 0.00622 µM)
Cc1ccc(Cc2nsc(N3CCN(S(=O)(=O)c4ccc(Cl)cc4)C(C)C3)n2)cc1 (centres unmarked) [Compound 34, 1-[4-chlorophenylsulfonyl]-4-[3-(4-methylbenzyl)-1,2,4-thiadiazol-5-yl]-2-methylpiperazine]	66	0.0657 (≈ 0.142 µM)
Cc1ccc(Cc2nsc(N3CCN(S(=O)(=O)c4cccc5ccccc45)CC3)n2)cc1 [Compound 35, 1-[1-naphtylsulfonyl]-4-[3-(4-methylbenzyl)-1,2,4-thiadiazol-5-yl]piperazine]	47	0.0472 (≈ 0.102 µM)
Cc1ccc(Cc2nsc(N3CCN(S(=O)(=O)c4cc(Cl)ccc4Cl)C(C)C3)n2)cc1 (centres unmarked) [Compound 36, 1-[2,5-dichlorophenylsulfonyl]-4-[3-(4-methylbenzyl)-1,2,4-thiadiazol-5-yl]-2-methylpiperazine]	52	0.1 (≈ 0.201 µM)
Cc1ccc(Cc2nsc(N3CCN(S(=O)(=O)c4c(C)cc(C)cc4C)CC3)n2)cc1 [Compound 37, 1-[2,4,6-trimethylphenylsulfonyl]-4-[3-(4-methylbenzyl)-1,2,4-thiadiazol-5-yl]piperazine]	48	0.0731 (≈ 0.16 µM)
Cc1ccc(Cc2nsc(N3CCN(S(=O)(=O)c4ccc5ccccc5c4)C(C)C3)n2)cc1 (centres unmarked) [Compound 38, 1-[2-naphtylsulfonyl]-4-[3-(4-methylbenzyl)-1,2,4-thiadiazol-5-yl]-2-methylpiperazine]	78	0.13 (≈ 0.272 µM)
O=S(=O)(c1cc(Cl)ccc1Cl)N1CCN(c2nc(Cc3ccc(Cl)cc3)ns2)CC1 [Compound 39, 1-[2,5-dichlorophenylsulfonyl]-4-[3-(4-chlorobenzyl)-1,2,4-thiadiazol-5-yl]piperazine]	25	0.16 (≈ 0.318 µM)
Cc1ccc(Cc2nsc(N3CCN(S(=O)(=O)c4cccc5ccccc45)C(C)C3)n2)cc1 (centres unmarked) [Compound 41]	54	0.53 (≈ 1.11 µM)
Cc1ccc(Cc2nsc(N3CCN(S(=O)(=O)c4ccc(C(C)(C)C)cc4)C(C)C3)n2)cc1 (centres unmarked) [Compound 42, 1-[4-tert-butylphenylsulfonyl]-4-[3-(4-methylbenzyl)-1,2,4-thiadiazol-5-yl]-2-methylpiperazine]	33	0.87 (≈ 1.79 µM)
CC1CN(c2nc(Cc3ccc(Cl)cc3)ns2)CCN1S(=O)(=O)c1cccc2ccccc12 (centres unmarked) [Compound 43, 1-[1-naphtylsulfonyl]-4-[3-(4-chlorobenzyl)-1,2,4-thiadiazol-5-yl]-2-methylpiperazine]	35	0.89 (≈ 1.78 µM)
COc1cccc(S(=O)(=O)N2CCN(c3nc(Cc4ccc(F)cc4)ns3)CC2)c1 [Compound 44, 1-[3-methoxyphenylsulfonyl]-4-[3-(4-fluorobenzyl)-1,2,4-thiadiazol-5-yl]piperazine]	99	0.0571 (≈ 0.127 µM)
Cc1ccc(Cc2nsc(N3CCN(S(=O)(=O)c4c(C)cc(C)cc4C)C(C)C3)n2)cc1 (centres unmarked) [Compound 45, 1-[2,4,6-trimethylphenylsulfonyl]-4-[3-(4-methylbenzyl)-1,2,4-thiadiazol-5-yl]-2-methylpiperazine]	56	1.2 (≈ 2.55 µM)

SMILES	%I [%]	EC50 [µg/mL]
CC1CN(c2nc(Cc3ccc(F)cc3)ns2)CCN1S(=O)(=O)c1ccccc1 (centres unmarked) [Compound 47, 1-phenylsulfonyl-4-[3-(4-fluorobenzyl)-1,2,4-thiadiazol-5-yl]-2-methylpiperazine]	129	
CC(=O)Nc1ccc(S(=O)(=O)N2CCN(c3nc(Cc4ccc(C)cc4)ns3)CC2C)cc1 (centres unmarked) [Compound 48, 1-[4-acetamidophenylsulfonyl]-4-[3-(4-methylbenzyl)-1,2,4-thiadiazof-5-yl]-2-methylpiperazine]	91	0.00844 (≈ 0.0174 µM)
CC(=O)Nc1ccc(S(=O)(=O)N2CCN(c3nc(Cc4ccc(C)cc4)ns3)CC2)cc1 [Compound 49, 1-[4-acetamidophenylsulfonyl]-4-[3-(4-methylbenzyl)-1,2,4-thiadiazol-5-yl]piperazine]	77	0.000106 (≈ 0.000225 µM)
Cc1ccc(Cc2nsc(N3CCN(S(=O)(=O)c4ccc(C)cc4)C(C)C3)n2)cc1 (centres unmarked) [Compound 50, 1-[4-methylphenylsulfonyl]-4-[3-(4-methylbenzyl)-1,2,4-thiadiazol-5-yl]-2-methylpiperazine]	105	
COc1ccc(S(=O)(=O)N2CCN(c3nc(Cc4ccc(Cl)cc4)ns3)CC2C)cc1 (centres unmarked) [Compound 51, 1-[4-methoxyphenylsulfonyl]-4-[3-(4-chlorobenzyl)-1,2,4-thiadiazol-5-yl]-2-methylpiperazine]	94	0.00135 (≈ 0.00281 µM)
O=S(=O)(c1ccc2ccccc2c1)N1CCN(c2nc(Cc3ccc(Cl)cc3)ns2)CC1 [Compound 52, 1-[2-naphtylsulfonyl]-4-[3-(4-chlorobenzyl)-1,2,4-thiadiazol-5-yl]piperazine]	104	0.1 (≈ 0.206 µM)
CC1CN(c2nc(Cc3ccc(F)cc3)ns2)CCN1S(=O)(=O)c1ccc(C(C)(C)C)cc1 (centres unmarked) [Compound 54, 1-[4-tert-butylphenylsulfonyl]-4-[3-(4-fluorobenzyl)-1,2,4-thiadiazol-5-yl]-2-methylpiperazine]	60	
CC(=O)Nc1ccc(S(=O)(=O)N2CCN(c3nc(Cc4ccc(F)cc4)ns3)CC2C)cc1 (centres unmarked) [Compound 55, 1-[4-acetamidophenylsulfonyl]-4-[3-(4-fluorobenzyl)-1,2,4-thiadiazol-5-yl]-2-methylpiperazine]	114	0.0781 (≈ 0.16 µM)
Cc1ccc(Cc2nsc(N3CCN(S(=O)(=O)c4cccc(C(F)(F)F)c4)C(C)C3)n2)cc1 (centres unmarked) [Compound 56, 1-[3-trifluoromethylphenylsulfonyl]-4-[3-(4-methylbenzyl)-1,2,4-thiadiazol-5-yl]-2-methylpiperazine]	87	
Cc1ccc(Cc2nsc(N3CCN(S(=O)(=O)c4ccc(F)cc4)CC3)n2)cc1 [Compound 57, 1-[4-fluorophenylsulfonyl]-4-[3-(4-methylbenzyl)-1,2,4-thiadiazol-5-yl]piperazine]	88	0.0104 (≈ 0.024 µM)
Cc1ccc(Cc2nsc(N3CCN(S(=O)(=O)c4ccc(F)cc4)C(C)C3)n2)cc1 (centres unmarked) [Compound 58, 1-[4-fluorophenylsulfonyl]-4-[3-(4-methylbenzyl)-1,2,4-thiadiazol-5-yl]-2-methylpiperazine]	58	0.061 (≈ 0.137 µM)
CC1CN(c2nc(Cc3ccc(F)cc3)ns2)CCN1S(=O)(=O)c1ccc(F)cc1 (centres unmarked) [Compound 59, 1-[4-fluorophenylsulfonyl]-4-[3-(4-fluorobenzyl)-1,2,4-thiadiazol-5-yl]-2-methylpiperazine]	42	
COc1ccc(S(=O)(=O)N2CCN(c3nc(Cc4ccc(C)cc4)ns3)CC2C)cc1 (centres unmarked) [Compound 60, 1-[4-methoxyphenylsulfonyl]-4-[3-(4-methylbenzyl)-1,2,4-thiadiazol-5-yl]-2-methylpiperazine]	93	0.0013 (≈ 0.00283 µM)
CC(C)(C)c1ccc(S(=O)(=O)N2CCN(c3nc(Cc4ccc(F)cc4)ns3)CC2)cc1 [Compound 61, 1-[4-ter-butylphenylsulfonyl]-4-[3-(4-fluorobenzyl)-1,2,4-thiadiazol-5-yl]piperazine]	47	
Cc1ccc(Cc2nsc(N3CCN(S(=O)(=O)c4cccc(C(F)(F)F)c4)CC3)n2)cc1 [Compound 62, 1-[3-trifluoromethylphenylsulfonyl]-4-[3-(4-methylbenzyl)-1,2,4-thiadiazol-5-yl]piperazine]	45	
Cc1ccc(S(=O)(=O)N2CCN(c3nc(Cc4ccc(Cl)cc4)ns3)CC2)cc1 [Compound 63, 1-[4-methylphenylsulfonyl]-4-[3-(4-chlorobenzyl)-1,2,4-thiadiazol-5-yl]piperazine]	83	0.0807 (≈ 0.18 µM)

Source: patent publication EP1981504B1, “THIADIAZOLE DERIVATIVES FOR THE TREATMENT OF NEURO DEGENERATIVE DISEASES” (NV reMYND, priority 2006, dated 2007)
